The structures appear in SMILES notation.

What all share (type): cell-based
In assay [1] the test system is Moraxella catarrhalis. Nature of the assay: MIC by agar dilution, MCAT 30607. To be noted: strain MCAT 30607. The text has this:
(§1) The in vitro activity of compounds of this invention can be assessed by standard testing procedures such as the determination of minimum inhibitory concentration (MIC) by agar dilution as described in “Approved Standard.
(In agar dilution, organisms are placed on agar that contains the substance at set levels.)

Assay [2] relates to Staphylococcus epidermidis. Nature of the assay: MIC by agar dilution, SEPI 30593. The settings on record: strain SEPI 30593.
Excerpt: as §1

In assay [3] the test system is Staphylococcus aureus. Briefly: MIC by agar dilution, SAUR 9213. The settings on record: strain SAUR 9213.
Excerpt: as §1

In assay [4] the test system is H. influenzae. Briefly: MIC by agar dilution, HINF 30063. The settings on record: strain HINF 30063.
Excerpt: as §1

Assay [5] concerns Streptococcus pyogenes. Nature of the assay: MIC by agar dilution, SPYO 152. To be noted: strain SPYO 152.
Excerpt: as §1

Assay [6] has as its system Enterococcus faecalis. Briefly: MIC by agar dilution, EFAE 9217. The settings on record: strain EFAE 9217.
Excerpt: as §1

Assay [7] concerns Streptococcus pneumoniae. Briefly: MIC by agar dilution, SPNE 9912. The settings on record: strain SPNE 9912.
Excerpt: as §1

Assay [8] relates to Enterococcus faecium. Nature of the assay: MIC by agar dilution, EFAE 12712. To be noted: strain EFAE 12712.
Excerpt: as §1

For `CC(=S)NC[C@H]1CN(c2ccc(C3CCS(=N)(=O)CC3)c(F)c2)C(=O)O1` (single isomer, unassigned) [Example 9], the “Antibacterial Activity Minimum Inhibitory Concentration MCAT 30607” value in assay [1] was 2 µg/mL. Further, the “Antibacterial Activity Minimum Inhibitory Concentration SEPI 30593” value in assay [2] came to 0.125 µg/mL. Also, in assay [3], the “Antibacterial Activity Minimum Inhibitory Concentration SAUR 9213” value was 0.5 µg/mL. Besides, the “Antibacterial Activity Minimum Inhibitory Concentration HINF 30063” value in assay [4] is 2 µg/mL. In addition, in assay [5], the “Antibacterial Activity Minimum Inhibitory Concentration SPYO 152” value stood at 0.25 µg/mL. In addition, the “Antibacterial Activity Minimum Inhibitory Concentration EFAE 9217” value in assay [6] is 0.5 µg/mL. Moreover, the “Antibacterial Activity Minimum Inhibitory Concentration SPNE 9912” value in assay [7] came to 0.25 µg/mL. Besides, the “Antibacterial Activity Minimum Inhibitory Concentration EFAE 12712” value in assay [8] stood at 0.5 µg/mL.

On to `CC(=S)NC[C@H]1CN(c2ccc(N3CCS(=N)(=O)CC3)c(F)c2)C(=O)O1` [Example 1, N-({(5S)-3-[3-Fluoro-4-(1-imino-1-oxido-1λ^4,4-thiazinan-4-yl)phenyl]-2-oxo-1,3-oxazolidin-5-yl}methyl)ethanethioamide], for which, in assay [1], the “Antibacterial Activity Minimum Inhibitory Concentration MCAT 30607” value was 2 µg/mL. For the same compound, in assay [2], the “Antibacterial Activity Minimum Inhibitory Concentration SEPI 30593” value was 0.5 µg/mL. Further, the “Antibacterial Activity Minimum Inhibitory Concentration SAUR 9213” value in assay [3] was 1 µg/mL. In addition, the “Antibacterial Activity Minimum Inhibitory Concentration HINF 30063” value in assay [4] is 4 µg/mL. For the same compound, in assay [5], the “Antibacterial Activity Minimum Inhibitory Concentration SPYO 152” value is 0.25 µg/mL. In addition, the “Antibacterial Activity Minimum Inhibitory Concentration EFAE 9217” value in assay [6] is 1 µg/mL. In addition, in assay [7], the “Antibacterial Activity Minimum Inhibitory Concentration SPNE 9912” value stood at 0.25 µg/mL. Further, the “Antibacterial Activity Minimum Inhibitory Concentration EFAE 12712” value in assay [8] came to 1 µg/mL.

Regarding `CCC(=S)NC[C@H]1CN(c2ccc(N3CCS(=O)(=NC(=O)OC)CC3)c(F)c2)C(=O)O1` [Example 27, N-[((5S)-3-{3-Fluoro-4-(1-[(methoxycarbonyl)imino]-1-oxido-1λ^4,4-thiazinan-4-yl)phenyl}-2-oxo-1,3-oxazolidin-5-yl)methyl]propanethioamide], the “Antibacterial Activity Minimum Inhibitory Concentration MCAT 30607” value in assay [1] stood at 8 µg/mL. Further, the “Antibacterial Activity Minimum Inhibitory Concentration SEPI 30593” value in assay [2] was found to be 0.5 µg/mL. Moreover, the “Antibacterial Activity Minimum Inhibitory Concentration SAUR 9213” value in assay [3] is 2 µg/mL. In assay [4], the “Antibacterial Activity Minimum Inhibitory Concentration HINF 30063” value came out at 4 µg/mL. The “Antibacterial Activity Minimum Inhibitory Concentration SPYO 152” value in assay [5] was 0.5 µg/mL. For the same compound, in assay [6], the “Antibacterial Activity Minimum Inhibitory Concentration EFAE 9217” value is 0.5 µg/mL. Further, in assay [7], the “Antibacterial Activity Minimum Inhibitory Concentration SPNE 9912” value amounted to 0.125 µg/mL. Further, the “Antibacterial Activity Minimum Inhibitory Concentration EFAE 12712” value in assay [8] was 0.5 µg/mL.

Take `COC(=O)N=S1(=O)CCC(c2ccc(N3C[C@H](CNC(=S)C4CC4)OC3=O)cc2F)CC1` (single isomer, unassigned) [Example 30]: the “Antibacterial Activity Minimum Inhibitory Concentration MCAT 30607” value in assay [1] turned out to be 0.5 µg/mL. In addition, the “Antibacterial Activity Minimum Inhibitory Concentration SEPI 30593” value in assay [2] is 0.5 µg/mL. The “Antibacterial Activity Minimum Inhibitory Concentration SAUR 9213” value in assay [3] turned out to be 1 µg/mL. In addition, in assay [4], the “Antibacterial Activity Minimum Inhibitory Concentration HINF 30063” value was 4 µg/mL. For the same compound, in assay [5], the “Antibacterial Activity Minimum Inhibitory Concentration SPYO 152” value is 0.5 µg/mL. Also, the “Antibacterial Activity Minimum Inhibitory Concentration EFAE 9217” value in assay [6] worked out at 0.5 µg/mL. In assay [7], the “Antibacterial Activity Minimum Inhibitory Concentration SPNE 9912” value is 0.125 µg/mL. Besides, in assay [8], the “Antibacterial Activity Minimum Inhibitory Concentration EFAE 12712” value was determined as 0.5 µg/mL.

For the compound `CC(=O)N=S1(=O)CCC(c2ccc(N3C[C@H](CNC(C)=O)OC3=O)cc2F)CC1` (single isomer, unassigned) [Example 12], the “Antibacterial Activity Minimum Inhibitory Concentration MCAT 30607” value in assay [1] was 8 µg/mL. Also, the “Antibacterial Activity Minimum Inhibitory Concentration SEPI 30593” value in assay [2] turned out to be 1 µg/mL. In assay [3], the “Antibacterial Activity Minimum Inhibitory Concentration SAUR 9213” value worked out at 8 µg/mL. The “Antibacterial Activity Minimum Inhibitory Concentration HINF 30063” value in assay [4] worked out at 16 µg/mL. The “Antibacterial Activity Minimum Inhibitory Concentration SPYO 152” value in assay [5] came out at 1 µg/mL. For the same compound, the “Antibacterial Activity Minimum Inhibitory Concentration EFAE 9217” value in assay [6] was determined as 2 µg/mL. In addition, the “Antibacterial Activity Minimum Inhibitory Concentration SPNE 9912” value in assay [7] stood at 0.5 µg/mL.

(Values after US20010046987A1, “Oxazolidinones having a sulfoximine functionality” (priority 1999, published 2001).)
